The results in this text go back to ChEMBL document CHEMBL1132129, “Stereoselective synthesis of a new muscarinic M3 receptor antagonist, J-104129” (Bioorg Med Chem Lett, 1999).

The target of the experiment is Muscarinic acetylcholine receptor M3 (Homo sapiens, UniProt P20309). Put plainly: Binding affinity for human cloned Muscarinic M3 receptors.
Sequence of Muscarinic acetylcholine receptor M3 (P20309 whole entry): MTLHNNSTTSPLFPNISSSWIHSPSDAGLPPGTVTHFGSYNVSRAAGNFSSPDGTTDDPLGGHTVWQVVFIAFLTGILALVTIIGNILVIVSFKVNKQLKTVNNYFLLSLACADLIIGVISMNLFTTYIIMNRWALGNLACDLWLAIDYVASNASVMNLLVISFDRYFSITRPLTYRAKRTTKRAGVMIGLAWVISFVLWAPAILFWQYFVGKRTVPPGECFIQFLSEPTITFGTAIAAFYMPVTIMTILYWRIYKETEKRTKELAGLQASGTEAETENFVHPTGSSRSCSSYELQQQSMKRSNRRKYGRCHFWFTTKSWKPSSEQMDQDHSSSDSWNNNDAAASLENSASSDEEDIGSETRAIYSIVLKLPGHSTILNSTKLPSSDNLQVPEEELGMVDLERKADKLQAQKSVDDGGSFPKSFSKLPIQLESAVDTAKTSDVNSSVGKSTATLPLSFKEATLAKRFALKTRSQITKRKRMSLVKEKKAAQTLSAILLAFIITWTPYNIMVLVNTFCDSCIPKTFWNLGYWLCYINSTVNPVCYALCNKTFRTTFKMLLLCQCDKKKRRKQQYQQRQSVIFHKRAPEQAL

A word on the Ki: it is the dissociation constant of the complex between target and ligand, obtained from inhibition or displacement. The molecule `CC(C)=CCCN1CCC(NC(=O)[C@](O)(c2ccccc2)C2CCCC2)CC1` came in with a Ki of 4.2 nM.
